Assays:
Format in all cases: in vivo
[1] = system: Spodoptera frugiperda; test: Spodoptera frugiperda spray test; conditions: in Zea mays, 168 h, read-out: activity (mortality)
How it was run: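 Maize leaf sections were sprayed with compound formulated in acetone/DMF and diluted in water containing 1000 ppm emulsifier. Dried leaves were infested with fall armyworm larvae, and percent mortality was scored after 7 days.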

[2] = system: Myzus persicae; test: Myzus persicae oral test; conditions: 120 h, read-out: activity (mortality)
How it was run: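 Percent mortality was recorded at day 5, where 0% means no aphids killed. Compound prepared from an acetone concentrate diluted in water and combined with IPL41 medium containing sugar was offered to mixed-stage green peach aphids, which sucked it through a parafilm seal.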

[3] = system: Nezara viridula; test: Nezara viridula spray test; conditions: in Hordeum vulgare, 96 h, barley plants, larvae, after 4 days; for mortality at 500 g/ha: application rate 500 g/ha; for mortality at 100 g/ha: application rate 100 g/ha
Method: Nezara viridula—Spray Test Solvent: 78.0 parts by weight of acetone • • 1.5 parts by weight of dimethylformamide Emulsifier: alkylarylpolyglycol ether
(§1) To produce a suitable preparation of active compound, 1 part by weight of active compound is mixed with the stated amount of solvent, and the concentrate is diluted with water, containing an emulsifier concentration of 1000 ppm, to the desired concentration. Further test concentrations are prepared by dilution with emulsifier containing water.
Barley plants (Hordeum vulgare) infested with larvae of the southern green stink bug (Nezara viridula) are sprayed with a test solution containing the desired concentration of the active ingredient.
After 4 days mortality in % is determined. 100% means all the stink bugs have been killed; 0% means none of the stink bugs have been killed.

[4] = system: Myzus persicae; test: Myzus persicae spray test; conditions: in Brassica rapa, foliar, 120 h; for mortality at 100 g/ha: read-out: activity (mortality), application rate 100 g/ha, spray, Chinese cabbage leaf disks, after 5 days
Method: as §1, with “Myzus persicae—Spray Test Solvent: 78.0 parts by weight acetone • 1.5 parts by weight dimethylformamide Emulsifier: alkylarylpolyglycol ether To” for “To”, “solvents” for “solvent,”, “and” for “and the concentrate”
Chinese cabbage (Brassica pekinensis) leaf disks infected with all instars of the green peach aphid (Myzus persicae), are sprayed with a preparation of the active ingredient of the desired concentration.
After 5 days mortality in % is determined. 100% means all aphids have been killed and 0% means none of the aphids have been killed.

[5] = system: Rhipicephalus sanguineus; test: Rhipicephalus sanguineus in-vitro contact test, adult brown dog ticks (RHIPSA Cont); conditions: 48 h, after 48 hours, read-out: activity (efficacy: 100% means all ticks are dead or moribund); for pest or weed control at 5 µg/cm2, 500 g/ha: application rate 5 μg/cm^2 (=500 g/ha); for pest or weed control at 1 µg/cm2, 100 g/ha: application rate 1 μg/cm^2 (=100 g/ha)
How it was run: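 Compound in acetone (9 mg/mL stock, diluted to test concentration) is coated onto inner walls of glass tubes by rotation for 2 h at 30 rpm. Efficacy is read after 48 h: ticks are tapped down and held on a 45-50° C plate for at most 5 min, and immotile or uncoordinated ones that fail to climb away count as dead or moribund.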

[6] = system: Diabrotica balteata; test: Diabrotica balteata spray test; conditions: 168 h, wheat seeds, larvae, after 7 days, read-out: activity (efficacy: 100% means all seedlings have grown up like in the untreated, uninfected control); for pest or weed control at 32 µg/disc, 100 g/ha: application rate 100 g/ha (=32 μg/well)
How it was run: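 Wheat seedlings, germinated 1 day on agar, were sprayed with compound in acetone/DMF diluted in water containing emulsifier, then infested with 10-20 Diabrotica balteata larvae. After 7 days efficacy in % was scored: 100% means seedlings grew like the untreated, uninfected control; 0% means none grew.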

[7] = system: Rhipicephalus microplus; test: Rhipicephalus (Boophilus) microplus in-vitro contact test, larval cattle tick, strain Parkhurst (BOOPMI Cont); conditions: application rate 5 μg/cm^2 (=500 g/ha), tick larvae, after 48 hours, read-out: activity (efficacy: 100% means all larvae are dead or moribund)
How it was run: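 Acetone solutions dried onto glass tube walls (900 ppm giving 5 μg/cm^2); 20-50 pyrethroid-resistant Parkhurst larvae added per tube and held 48 h at 27° C., 85% relative humidity. Efficacy scored by negative geotaxis as % dead or moribund larvae.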

[8] = system: Ctenocephalides felis; test: Ctenocephalides felis in-vitro contact test, adult cat flea (CTECFE Cont); conditions: application rate 5 μg/cm^2 (=500 g/ha), adult cat fleas, after 48 hours, read-out: activity (efficacy: 100% means all fleas are dead or moribund)
How it was run: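 Acetone solutions coated on glass tube inner walls (900 ppm giving 5 μg/cm^2), then 5-10 adult fleas added and held 48 h at room temperature. Fleas unable to escape a 45-50° C. heating plate within 5 min scored dead or moribund; efficacy = % dead/moribund.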

[9] = system: Rhipicephalus microplus; test: Rhipicephalus (Boophilus) microplus injection test (BOOPMI Inj); conditions: 168 h, injection into adult engorged female ticks, egg deposition after 7 days, read-out: activity (efficacy: 100% means all eggs are infertile); for pest or weed control at 0.004 mg: application rate 4 μg/tick
How it was run: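 Five engorged adult female R. microplus ticks injected into the abdomen with 1 μL of compound diluted in DMSO, then kept in a climate chamber. Fertile egg deposition checked after 7 days; eggs without visible fertility held until hatching at about 42 days. Efficacy: 100% = all eggs infertile, 0% = all fertile.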

[10] = system: Aedes aegypti strain MONHEIM; test: Aedes aegypti test (AEDSAE surface treatment & contact assay); conditions: surface concentration 20 mg/m^2, glazed tile, exposure 30 minutes, 24 hours after contact, read-out: efficacy (mortality)
How it was run: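 Compound dissolved in acetone (2 mg/ml) with 2000 ppm rapeseed oil methyl ester, pipetted onto glazed tile and dried. Adult mosquitoes exposed on the surface for 30 min; percent mortality scored 24 h after contact.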

[11] = system: Musca domestica strain WHO—N; test: Musca domestica test (MUSCDO surface treatment & contact assay); conditions: exposure 30 minutes, 24 hours after contact, read-out: efficacy (mortality)
How it was run: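 Compound dissolved in acetone (2 mg/ml) with 2000 ppm rapeseed oil methyl ester and pipetted onto glazed tile; after acetone evaporation, adult flies exposed to dried surface for 30 minutes. Mortality (%) scored 24 hours after contact.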

SMILES | mortality at 100 g/ha [1] [%] | mortality at 4 ppm [2] [%] | mortality at 500 g/ha [3] [%] | mortality at 100 g/ha [4] [%] | pest or weed control at 5 µg/cm2, 500 g/ha [5] [%] | pest or weed control at 32 µg/disc, 100 g/ha [6] [%] | pest or weed control at 5 µg/cm2 [7] [%] | mortality at 0.8 ppm [2] [%] | mortality at 100 g/ha [3] [%] | pest or weed control at 1 µg/cm2, 100 g/ha [5] [%] | pest or weed control at 5 µg/cm2 [8] [%] | pest or weed control at 0.004 mg [9] [%] | mortality at 500 g/ha [1] [%] | mortality at 500 g/ha ([4]; read-out: activity (mortality), application rate 500 g/ha, spray, Chinese cabbage leaf disks, after 5 days) [%] | pest or weed control at 160 µg/disc, 500 g/ha ([6]; application rate 500 g/ha (=160 μg/well)) [%] | mortality at 20 mg/m2 [10] [%] | pest or weed control at 0.02 mg ([9]; application rate 20 μg/tick) [%] | mortality at 4 mg/m2 ([11]; surface concentration 4 mg/m^2, glazed tile) [%] | mortality at 20 mg/m2 ([11]; surface concentration 20 mg/m^2, glazed tile) [%]
COc1nc([C@H](C)NC(=O)c2cc(OC(F)F)cc(C(F)F)c2)n(-c2ccc(C#N)cn2)n1 [I-65] | 100 | 100 | 100 | 90 | 80 | 100 | 100 |  |  |  |  |  |  |  |  |  |  |  | 
CCSc1cc(C#N)cc(C(=O)N[C@@H](C)c2ncnn2-c2ccc(C#N)cn2)c1 [II-109] |  | 100 |  | 90 | 100 | 100 | 100 | 90 | 100 | 100 | 100 | 100 |  |  |  |  |  |  | 
Cc1nc([C@H](C)NC(=O)c2cc(C(F)F)cc(C(F)F)c2)n(-c2ccc(C#N)cn2)n1 [II-114] | 83 | 100 |  | 90 | 100 | 100 | 100 | 100 | 100 | 100 | 100 |  |  |  |  |  |  |  | 
Cc1nc([C@H](C)NC(=O)c2cc(C(F)(F)F)cc(C(F)(F)F)c2)n(-c2ccc(C(=O)N(C)C)cn2)n1 [II-100] | 100 | 100 |  | 100 | 100 |  | 100 | 100 | 100 | 100 | 100 | 100 |  |  |  |  |  |  | 
Cc1nc([C@H](C)NC(=O)c2cc(C(F)(F)F)cc(C(F)(F)F)c2)n(-c2ccc(C(=O)N(C)C(C)C)cn2)n1 [II-92] | 100 | 100 |  | 90 | 100 |  | 100 |  | 90 | 100 | 100 | 100 |  |  |  |  |  |  | 
C[C@H](NC(=O)c1cc(C(F)(F)F)cc(C(F)(F)F)c1)c1ncnn1-c1ncc(I)s1 [II-39] | 100 |  | 90 |  | 100 | 100 | 100 |  |  | 100 |  | 100 | 100 | 100 | 100 | 80 to 100 | 100 | 80 to 100 | 80 to 100

— patent publication US20220274947A1, “NOVEL HETEROARYL-TRIAZOLE COMPOUNDS AS PESTICIDES” (Bayer Aktiengesellschaft, priority 2019, published 2022)
